Series [1] can be described thus: Accelerated stability in the quantification of UA (uric acid). Type of series: physicochemical. The note with it: stored at 40° C., day 7, 14, 21 and 28; low concentration region of UA (2.1 mg/dL); FIG. 14. The method, then:
At day 7, 14, 21 and 28, the reagents (wrapped with aluminum foil) stored in a chamber at 40° C. were taken out and brought back to room temperature. Also, the samples were taken out of a freezing chamber and naturally thawed at room temperature. They were mixed on a vortex mixer and used for the measurement. The absorbance was measurement similarly to the measurement of the linearity.

Series [2] can be described thus: Solution stability under photo irradiation (optical stability). The note with it: 0.25 mM in 50 mM MES buffer (pH 6.5), under fluorescent lamp, temporal change in absorbance at 650 nm; FIG. 1. The class given is physicochemical. The method, then:
Solution stability under photo irradiation was tested as follows. Each sample solution of Compound A, B, C and D according to the invention and DA-67 was prepared with 50 mM MES buffer (pH 6.5) in the concentration of 0.25 mM. Temporal change in the absorbance at 650 nm of each reagent prepared placed under fluorescent lamp was monitored.

For series [3] the following is noted: general statement on the conventional reagent; cited from earlier work.

Regarding `CN(C)c1ccc2c(c1)Sc1cc(N(C)C)ccc1N2C(=O)NCCS(=O)(=O)O` [Compound A], the “order of accelerated stabilities” value in series [1] is given as “Compound A according to the invention>Compound D according to the invention≈DA-67>Compound B according to the invention>Compound C according to the invention”. The optical stability entry in series [2] is reported as “DA-67 ≃Compound B according to the invention≈Compound C according to the invention<Compound A according to the invention<Compound D according to the invention”.

Consider `CN(C)c1ccc2c(c1)Sc1cc(N(C)C)ccc1N2C(=O)NCC(=O)NCC(=O)O` [Compound D], for which, in series [1], the “order of accelerated stabilities” value is “Compound A according to the invention>Compound D according to the invention≈DA-67>Compound B according to the invention>Compound C according to the invention”. In series [2], the optical stability result is reported as “DA-67 ≃Compound B according to the invention≈Compound C according to the invention<Compound A according to the invention<Compound D according to the invention”.

Regarding `CN(C)c1ccc2c(c1)Sc1cc(N(C)C)ccc1N2C(=O)NCC(=O)O` [DA-67, reference compound], in series [3], the “solubility in water (stated drawback)” value is “poor solubility in water”. Besides, the “order of accelerated stabilities” value in series [1] is “Compound A according to the invention>Compound D according to the invention≈DA-67>Compound B according to the invention>Compound C according to the invention”. In addition, the optical stability entry in series [2] is “DA-67 ≃Compound B according to the invention≈Compound C according to the invention<Compound A according to the invention<Compound D according to the invention”.

Consider `CN(C)c1ccc2c(c1)Sc1cc(N(C)C)ccc1N2C(=O)NCCC(=O)O` [Compound B], for which, in series [1], the “order of accelerated stabilities” value is “Compound A according to the invention>Compound D according to the invention≈DA-67>Compound B according to the invention>Compound C according to the invention”. The optical stability entry in series [2] is “DA-67 ≃Compound B according to the invention≈Compound C according to the invention<Compound A according to the invention<Compound D according to the invention”.

The values above are taken from patent US10787571B2, “Oxidation color developable compound and oxidation color development reagent” (DOJINDO LABORATORIES, priority 2017, dated 2020).
